In patent publication US7615380B2, “Methods for modulating an immune response by modulating KRC activity” (President and Fellows of Harvard College, priority 2001, dated 2009):

Experiments:
IL-2 = IL-2 ELISA in stably transfected Jurkat clones; assay type: cell-based, human; settings: stable Jurkat clones, PMA and ionomycin
Protocol: In panel A Jurkat T cells were stably transfected with vector (pEF) or KRC expression plasmids. Stable clones were stimulated for 18 hours with PMA (50 ng/mL) plus ionomycin (2 μM) and IL-2 production was measured by ELISA. In panel B Primary CD4+ T cells were activated for 36 hours and subsequently transduced with control (RV), KRC, or KRC dominant negative (ZAS2) bicistronic GFP-expressing retroviruses. GFP-positive cells were sorted and stimulated for 24 hours with anti-CD3 or anti-CD3/anti-CD28 antibodies and IL-2 production was measured by ELISA. In panel C CD4 T cells from KRC +/+ or −/− mice were stimulated with anti-CD3 (1.0 μg/mL)/CD28 (0.5 μg/mL) antibodies for 24 hours and IL-2 production was measured by ELISA. In panel D CD4 T cells from KRC +/+ or −/− mice were stimulated with anti-CD3/CD28 antibodies for 72 hours in the presence of 200 U/mL human IL-2. IFNγ production was measured by ELISA.
In this example, increased IL-2 production in Jurkat T cells stably expressing KRC was measured by ELISA. IL-2 promoter activation requires antigen receptor engagement plus an accessory signal usually supplied by an antigen presenting cell (Jain, J., et al. (1995) Curr. Biol. 7:333-342). […] G418 drug-resistant Jurkat clones were expanded and analyzed for IL-2 secretion following activation.

NFκB = NFκB luciferase reporter transfection assay in 293T cells; assay type: cell-based, human
Protocol: FIGS. 2(A)-2(C) depicts KRC preventing TRAF-dependent NFkB activation. Inhibition of TRAF2 (FIG. 2(A)), TRAF5 (FIG. 2(B)) and TRAF6 (FIG. 2(C)) mediated activation of NFkB by ectopically expressed KRC. 293 T cells (3×10^5 ) were transfected with 25 ng of NFkB luciferase reporter plasmid, 50 ng of CMVβGal and 1 μg of each indicated plasmid and 24 hours post transfection cells were harvested. Data from at least five experiments normalized for β galactosidase activity are shown. Vec refers to the empty MYC vector without the addition of TRAFs.
293 T cells (3×10^5 ) were transfected with 25 ng of NFκB luciferase reporter plasmid, 50 ng of CMVβGal and 1 μg of each indicated plasmid and 24 hours post transfection cells were stimulated for 4 hours with 10 ng/ml of TNFα. (A) KRC and KRC tr (B) dominant negative and antisense KRC (C) antisense KRC in the presence of exogenous TRAF2. Data from at least five experiments normalized for β galactosidase activity are shown.
HEK293 cells ([…] per well) were seeded in 6 well plates, and 12 h later cells were transfected with EFECTENE™ (Qiagen) with 25 ng of a 2XNFκB-luciferase (Luc) reporter gene plasmid and 0.5 μg of the indicated TRAF and KRC expression vectors. Total amounts of transfected DNA were kept constant by supplementing with control empty expression vector plasmids as needed. Cell extracts were prepared 24 h after transfection, and reporter gene activity was determined via the luciferase assay system (PROMEGA). PRSV-βGal vector (50 ng) was used to normalize for transfection efficiency by measuring β galactosidase activity using the Galacton-PLUS substrate system (TROPIX, Inc.). Whenever indicated, the cells were treated for 4 hours with TNFα or IL-1 (10 ng/ml). To generate stable transfectants, EFECTENE™ mediated transfection of the RAW cell line was performed and clones were selected and maintained in complete medium supplemented with G418 (2 mg/ml).

With “KRC: full-length KRC zinc finger protein (SEQ ID NO:2) overexpressed from an expression vector” as the substance, how does the IL-2 production (IL-2) read?
Its IL-2 production is “substantially greater amounts of IL-2”.

What about the “NFκB activation induced by TRAF5 and TRAF6” value (NFκB; 293T cells) of the same substance?
The value was “substantially but not completely affected”.

And the NFkB-dependent transactivation (NFκB; 293T cells, absence of exogenous TRAFs)?
The NFkB-dependent transactivation was “blocked NFkB-dependent transactivation”.

And the “TRAF2-induced NFκB activation” value (NFκB; 293T cells, exogenous TRAF2)?
The value was “blocked TRAF2-induced NFκB activation”.

What about the “TNFα-induced NFκB activation” value (NFκB; 293 cells, 10 ng/ml TNFα 4 hours) of the same substance?
Its value is “strongly inhibited TNFα-induced NFκB activation”.
